According to DBAASP:
Converted amounts (≈) assume the structure as drawn. “And” between values parts separate entries of the source, which are not always exact repeats. Equal entries are not always repeated.

How the values were obtained:
Assay in all cases: ≥ marks a high value that may be exact or a test limit, other limits are often not marked, values filed in µg/mL are converted to µM
[1] = tested on: Fusobacterium nucleatum NCTC 11326
[2] = tested on: Enterococcus faecium ATCC 51559
[3] = tested on: Bacillus subtilis KCTC 3068
[4] = tested on: Candida albicans ATCC 26790
[5] = tested on: Salmonella typhimurium KCTC 1926
[6] = tested on: Enterococcus faecalis ATCC 51299
[7] = tested on: Pseudomonas aeruginosa KCTC 1637
[8] = tested on: Streptococcus mutans ATCC 25175
[9] = tested on: Pseudomonas aeruginosa CCARM 2095
[10] = tested on: Pseudomonas aeruginosa CCARM 2109
[11] = tested on: Porphyromonas gingivalis ATCC 33277
[12] = tested on: Staphylococcus epidermidis KCTC 1917
[13] = tested on: Actinomyces israelii ATCC 12102
[14] = tested on: Staphylococcus aureus CCARM 3089
[15] = tested on: Escherichia coli KCTC 1682
[16] = tested on: Staphylococcus aureus CCARM 3095
[17] = tested on: Staphylococcus aureus CCARM 3090
[18] = tested on: Bacillus anthracis Sterne 34F2
[19] = tested on: Staphylococcus aureus CCARM 3001
[20] = tested on: Burkholderia thailandensis
[21] = tested on: Pseudomonas aeruginosa CCARM 2092
[22] = tested on: Staphylococcus aureus CCARM 3543
[23] = tested on: Staphylococcus aureus KCTC 1621
[24] = tested on: Bacillus subtilis ATCC 9372
[25] = tested on: Pseudomonas aeruginosa 5167
[26] = tested on: Salmonella enterica subsp. enterica serovar Typhimurium ATCC 14028
[27] = tested on: Staphylococcus aureus 794
[28] = tested on: Staphylococcus epidermidis ATCC 12228
[29] = tested on: Pseudomonas aeruginosa ATCC 15692
[30] = tested on: Acinetobacter baumannii 97830
[31] = tested on: Acinetobacter baumannii 9840
[32] = tested on: Candida albicans NCPF 1467
[33] = tested on: Staphylococcus aureus ATCC 25923
[34] = tested on: Staphylococcus aureus 936
[35] = tested on: Staphylococcus aureus ATCC 33591
[36] = tested on: Pseudomonas aeruginosa 1570
[37] = tested on: Escherichia coli ATCC 25922
[38] = tested on: Staphylococcus aureus 725
[39] = tested on: Staphylococcus aureus 113
Acinetobacter baumannii = tested on: Acinetobacter baumannii
Staphylococcus aureus 75 = tested on: Staphylococcus aureus 75
[40] = tested on: Bacillus subtilis ATCC 23857
[41] = tested on: Staphylococcus aureus NCTC 10788
[42] = tested on: Escherichia coli NCTC 10418
Escherichia coli D22 = tested on: Escherichia coli D22
[43] = tested on: Neurospora crassa CBS 327-54
[44] = tested on: Pseudomonas aeruginosa PTCC 2834
[45] = tested on: Staphylococcus aureus PTCC 1442
Aspergillus fumigatus = tested on: Aspergillus fumigatus
Micrococcus luteus A270 = tested on: Micrococcus luteus A270
Escherichia coli JM109 = tested on: Escherichia coli JM109
[46] = tested on: Escherichia coli BL21(DE3)
Cupriavidus necator H16 = tested on: Cupriavidus necator H16
[47] = tested on: Pseudomonas putida GPp104

Which results are given for `CC[C@H](C)[C@H](NC(=O)[C@H](CC(C)C)NC(=O)[C@H](CCCCN)NC(=O)[C@@H](NC(=O)[C@@H](NC(=O)[C@H](CCCN=C(N)N)NC(=O)[C@@H](N)CCCCN)[C@@H](C)CC)C(C)C)C(=O)N[C@@H](CC(C)C)C(=O)N[C@@H](CCCCN)C(=O)N[C@@H](Cc1c[nH]c2ccccc12)C(=O)N[C@@H](CC(C)C)C(=O)N[C@@H](CCCN=C(N)N)C(N)=O` [KRIVKLILKWLR]?
MIC [1]: 4.99 µM (≈ 7.81 µg/mL); MIC [2]: 4 µM (≈ 6.26 µg/mL); MIC [3]: 5.66 µM (≈ 8.85 µg/mL); MIC [4]: 9.97 µM (≈ 15.6 µg/mL); MIC [5]: 2.83 µM (≈ 4.43 µg/mL); MIC [6]: ≥ 39.9 µM; MIC [7]: 8 µM (≈ 12.5 µg/mL); MIC [8]: 2.5 µM (≈ 3.91 µg/mL); MIC [9]: 16 µM (≈ 25 µg/mL); MIC [10]: 8 µM (≈ 12.5 µg/mL); MIC [11]: 2.5 µM (≈ 3.91 µg/mL); MIC [12]: 2 µM (≈ 3.13 µg/mL); MIC [13]: 2.5 µM (≈ 3.91 µg/mL); MIC [14]: 4 µM (≈ 6.26 µg/mL); MIC [15]: 8 µM (≈ 12.5 µg/mL); MIC [16]: 4 µM (≈ 6.26 µg/mL); MIC [17]: 8 µM (≈ 12.5 µg/mL)

With `CC(C)[C@H](NC(=O)[C@H](CCCCN)NC(=O)[C@H](CCCN=C(N)N)NC(=O)[C@H](CCCCN)NC(=O)[C@H](CCCCN)NC(=O)[C@H](CCCCN)NC(=O)[C@@H]1CCCN1C(=O)[C@H](CCC(N)=O)NC(=O)[C@H](CO)NC(=O)[C@H](Cc1c[nH]c2ccccc12)NC(=O)[C@H](CCCCN)NC(=O)[C@@H](NC(=O)[C@H](Cc1c[nH]c2ccccc12)NC(=O)[C@H](Cc1c[nH]c2ccccc12)NC(=O)[C@@H](NC(=O)[C@H](CCCCN)NC(=O)[C@H](Cc1c[nH]c2ccccc12)NC(=O)[C@H](Cc1c[nH]c2ccccc12)NC(=O)[C@@H](NC(=O)[C@H](CCCCN)NC(=O)[C@@H](N)CCCCN)[C@@H](C)O)[C@@H](C)O)[C@@H](C)O)C(=O)O` [KKTWWKTWWTKWSQPKKKRKV] as the molecule, how does the MIC [3] read?
Its MIC is 2 µM (≈ 5.69 µg/mL).

What about the MIC [5] of the same molecule?
Its MIC is 1.41 µM (≈ 4.02 µg/mL).

What about the MIC [7] of the same molecule?
The MIC was 2.83 µM (≈ 8.05 µg/mL).

And the MIC [18]?
The MIC was at least 59 µM.

And the MIC [9]?
The MIC was 8 µM (≈ 22.8 µg/mL).

What about the MIC [10] of the same molecule?
The MIC was 8 µM (≈ 22.8 µg/mL).

What about the MIC [19] of the same molecule?
Its MIC is 2 µM (≈ 5.69 µg/mL).

And the MIC [20]?
Its MIC is at least 100 µM.

What about the MIC [12] of the same molecule?
Its MIC is 1.41 µM (≈ 4.02 µg/mL).

What about the MIC [21] of the same molecule?
Its MIC is 8 µM (≈ 22.8 µg/mL).

And the MIC [22]?
Its MIC is 1 µM (≈ 2.85 µg/mL).

What about the MIC [14] of the same molecule?
The MIC was 2 µM (≈ 5.69 µg/mL).

What about the MIC [23] of the same molecule?
Its MIC is 2 µM (≈ 5.69 µg/mL).

What about the MIC [15] of the same molecule?
Its MIC is 2 µM (≈ 5.69 µg/mL).

What about the MIC [24] of the same molecule?
The MIC was 3.3 µM (≈ 9.39 µg/mL).

`CC(C)C[C@H](NC(=O)[C@H](CC(C)C)NC(=O)[C@H](CCCCN)NC(=O)[C@H](CCCCN)NC(=O)[C@H](CC(C)C)NC(=O)[C@H](CC(C)C)NC(=O)[C@H](CCCCN)NC(=O)[C@H](CC(C)C)NC(=O)[C@@H](N)Cc1ccccc1)C(N)=O` [FLKLLKKLL] was tested. Which MIC [25] did it give?
The MIC was 14.3 µM (≈ 16 µg/mL).

What about the MIC [26] of the same molecule?
Its MIC is 14.3 µM (≈ 16 µg/mL).

And the MIC [27]?
The MIC was 14.3 µM (≈ 16 µg/mL).

And the MIC [28]?
Its MIC is 14.3 µM (≈ 16 µg/mL).

What about the MIC [29] of the same molecule?
The MIC was 7.17 µM (≈ 7.99 µg/mL).

And the MIC [30]?
The MIC was 7.17 µM (≈ 7.99 µg/mL).

And the MIC [31]?
Its MIC is 10.1 µM (≈ 11.3 µg/mL).

And the MIC [32]?
The MIC was 7 µM (≈ 7.8 µg/mL).

What about the MIC [33] of the same molecule?
The MIC was 14.3 µM (≈ 16 µg/mL).

And the MIC [34]?
The MIC was 7.17 µM (≈ 7.99 µg/mL).

And the MIC [35]?
Its MIC is 7.17 µM and 14.3 µM.

What about the MIC [36] of the same molecule?
Its MIC is 7.17 µM (≈ 7.99 µg/mL).

What about the MIC [37] of the same molecule?
Its MIC is 28.7 µM (≈ 32 µg/mL).

What about the MIC [38] of the same molecule?
Its MIC is 7.17 µM (≈ 7.99 µg/mL).

And the MIC [39]?
The MIC was 7.17 µM (≈ 7.99 µg/mL).

What about the MIC (Acinetobacter baumannii) of the same molecule?
The MIC was 10.1 µM (≈ 11.3 µg/mL).

And the MIC (Staphylococcus aureus 75)?
Its MIC is 7.17 µM (≈ 7.99 µg/mL).

What about the MIC [40] of the same molecule?
The MIC was 3.59 µM (≈ 4 µg/mL).

And the MIC [41]?
The MIC was 7 µM (≈ 7.8 µg/mL).

And the MIC [42]?
The MIC was 14 µM (≈ 15.6 µg/mL).

What does the source list for `CSCC[C@H](NC(=O)[C@H](CO)NC(=O)[C@@H](N)CO)C(=O)N[C@@H](CCCCN)C(=O)N[C@@H](CC(C)C)C(=O)N[C@@H](CO)C(=O)N[C@@H](Cc1ccccc1)C(=O)N[C@@H](CCCN=C(N)N)C(=O)N[C@@H](C)C(=O)N[C@@H](CCCN=C(N)N)C(=O)N[C@@H](C)C(=O)N[C@@H](Cc1ccc(O)cc1)C(=O)NCC(=O)N[C@@H](Cc1ccccc1)C(=O)N[C@@H](CCCN=C(N)N)C(=O)NCC(=O)N1CCC[C@H]1C(=O)NCC(=O)N1CCC[C@H]1C(=O)N[C@@H](CCC(N)=O)C(=O)N[C@@H](CC(C)C)C(=O)O` [SSMKLSFRARAYGFRGPGPQL]?
MIC (Escherichia coli D22): ≥ 150 µM; MIC [43]: ≥ 50 µM; MIC [44]: 20.6 µM (≈ 48 µg/mL); MIC [45]: ≥ 43 µM; MIC (Aspergillus fumigatus): ≥ 80 µM; MIC (Micrococcus luteus A270): 15 µM (≈ 34.9 µg/mL)

Which MIC (Escherichia coli JM109) does the source give for `CC[C@H](C)[C@H](NC(=O)[C@H](Cc1ccc(O)cc1)NC(=O)[C@@H](NC(=O)[C@@H]1CCCN1C(=O)[C@H](CCCN=C(N)N)NC(=O)[C@@H]1CCCN1C(=O)[C@H](CC(N)=O)NC(=O)[C@@H](N)CCCN=C(N)N)C(C)C)C(=O)N1CCC[C@H]1C(=O)N[C@@H](CCC(N)=O)C(=O)N1CCC[C@H]1C(=O)N[C@@H](CCCN=C(N)N)C(=O)N1CCC[C@H]1C(=O)N1CCC[C@H]1C(=O)N[C@@H](Cc1cnc[nH]1)C(=O)N1CCC[C@H]1C(=O)N[C@@H](CCCN=C(N)N)C(=O)N[C@@H](CC(C)C)C(=O)O` [RNPRPVYIPQPRPPHPRL] here?
Its MIC is 6.25 µM (≈ 13.7 µg/mL).

And the MIC [46]?
The MIC was 0.313 µM (≈ 0.686 µg/mL).

And the MIC (Cupriavidus necator H16)?
The MIC was 25 µM (≈ 54.8 µg/mL).

What about the MIC [47] of the same molecule?
Its MIC is 6.25 µM (≈ 13.7 µg/mL).
